Each structure is given as a SMILES string. Calls of active or inactive are those of the source. The rule behind the calls is not given here.

In experiment [1] the target is LIM domain kinase 2 (Homo sapiens) (UniProt P53671). Put plainly: Inhibition of human LIMK2 at 1 uM using CFL1 as substrate in presence of 33P-ATP by ProQinase assay.
In experiment [2] the target is Dual specificity tyrosine-phosphorylation-regulated kinase 1A (Homo sapiens) (UniProt Q13627). Put plainly: Inhibition of recombinant human N-terminal GST-tagged DYRK1A (1 to 502 residues) expressed in Escherichia coli assessed as remaining activity at 1 uM using KKISGRLSPIMTEQ as substrate incubated for 30 mins in presence of [gamma-33P]ATP by filter binding method relative to control.

Experiment [3] concerns the target Mitogen-activated protein kinase kinase kinase 11 (Homo sapiens) (UniProt Q16584). Put plainly: Inhibition of recombinant human N-terminal GST-tagged MLK3 (96 to 386 residues) expressed in baculovirus infected Sf21 cells assessed as remaining activity at 1 uM using MBP as substrate incubated for 30 mins in presence of [gamma-33P]ATP by filter binding method relative to control.

For another experiment, the species on record is Homo sapiens. Put plainly: Inhibition of DGK (unknown origin) at 1 uM.
Experiment [4] deals with Mitogen-activated protein kinase 3 (Homo sapiens) (UniProt P27361). Description: Inhibition of recombinant human N-terminal GST-tagged ERK1 (2 to 379 residues) expressed in Escherichia coli assessed as remaining activity at 1 uM using MBP as substrate incubated for 30 mins in presence of [gamma-33P]ATP by filter binding method relative to control.
Chain of Mitogen-activated protein kinase 3 (Homo sapiens) (P27361 whole entry, the tested form may be a part): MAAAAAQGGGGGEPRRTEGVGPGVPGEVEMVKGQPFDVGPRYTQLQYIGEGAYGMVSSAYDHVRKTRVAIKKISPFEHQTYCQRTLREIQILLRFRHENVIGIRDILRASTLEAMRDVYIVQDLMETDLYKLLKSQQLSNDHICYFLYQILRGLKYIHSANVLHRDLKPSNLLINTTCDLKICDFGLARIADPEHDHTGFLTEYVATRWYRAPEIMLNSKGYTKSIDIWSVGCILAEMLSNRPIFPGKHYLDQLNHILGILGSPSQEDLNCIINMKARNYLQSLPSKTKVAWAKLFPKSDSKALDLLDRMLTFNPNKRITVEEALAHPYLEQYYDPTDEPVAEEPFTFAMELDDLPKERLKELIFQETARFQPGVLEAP
The target in experiment [5] is Tyrosine-protein kinase Fer (Homo sapiens) (UniProt P16591). Put plainly: Inhibition of human FER at 1 uM using polyEY as substrate in presence of 33P-ATP by ProQinase assay.
Experiment [6] deals with Mitogen-activated protein kinase 1 (Homo sapiens) (UniProt P28482). Put plainly: Inhibition of human ERK2 at 1 uM using RBER-CHKtide as substrate in presence of 33P-ATP by ProQinase assay.
The target of experiment [7] is Rhodopsin kinase GRK7 (Homo sapiens) (UniProt Q8WTQ7). Description: Inhibition of human GRK7 at 1 uM using casein as substrate in presence of 33P-ATP by ProQinase assay.
Chain of Rhodopsin kinase GRK7 (Homo sapiens) (Q8WTQ7 whole entry, the tested form may be a part): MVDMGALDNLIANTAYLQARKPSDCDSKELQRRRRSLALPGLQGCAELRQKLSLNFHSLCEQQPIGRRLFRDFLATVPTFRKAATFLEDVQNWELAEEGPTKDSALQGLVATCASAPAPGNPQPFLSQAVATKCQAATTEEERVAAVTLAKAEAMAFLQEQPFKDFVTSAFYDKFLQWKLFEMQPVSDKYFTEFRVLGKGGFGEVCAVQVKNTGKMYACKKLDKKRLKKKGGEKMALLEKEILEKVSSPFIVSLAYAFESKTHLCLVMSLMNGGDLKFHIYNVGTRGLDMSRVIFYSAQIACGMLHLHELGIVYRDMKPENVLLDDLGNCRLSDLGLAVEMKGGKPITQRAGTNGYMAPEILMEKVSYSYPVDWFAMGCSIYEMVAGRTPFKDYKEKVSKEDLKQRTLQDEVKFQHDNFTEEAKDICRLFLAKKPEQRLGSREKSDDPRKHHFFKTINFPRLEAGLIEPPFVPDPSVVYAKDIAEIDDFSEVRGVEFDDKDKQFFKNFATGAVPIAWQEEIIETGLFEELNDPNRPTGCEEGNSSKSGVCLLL
For experiment [8], the target named is Protein-tyrosine kinase 6 (Homo sapiens) (UniProt Q13882). Put plainly: Inhibition of recombinant human N-terminal His6-tagged BRK (1 to 451 residues) expressed in baculovirus infected Sf21 cells assessed as remaining activity at 1 uM using Poly (Glu,Tyr) as substrate incubated for 30 mins in presence of [gamma-33P]ATP by filter binding method relative to control.
Chain of Protein-tyrosine kinase 6 (Homo sapiens) (Q13882 whole entry, looked up, the tested form may be a part): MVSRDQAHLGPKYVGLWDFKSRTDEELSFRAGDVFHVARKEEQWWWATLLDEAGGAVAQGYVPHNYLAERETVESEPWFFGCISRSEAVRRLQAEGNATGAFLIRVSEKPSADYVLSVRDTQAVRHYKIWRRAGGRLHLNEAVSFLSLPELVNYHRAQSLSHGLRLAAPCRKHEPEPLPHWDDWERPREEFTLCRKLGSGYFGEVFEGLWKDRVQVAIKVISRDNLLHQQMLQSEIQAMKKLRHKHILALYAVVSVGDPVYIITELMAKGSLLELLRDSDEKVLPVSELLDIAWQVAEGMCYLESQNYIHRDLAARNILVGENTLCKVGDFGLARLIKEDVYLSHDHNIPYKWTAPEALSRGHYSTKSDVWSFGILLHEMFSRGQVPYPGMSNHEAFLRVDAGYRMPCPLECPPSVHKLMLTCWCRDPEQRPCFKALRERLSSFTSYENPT

For experiment [9], the target named is Myosin light chain kinase, smooth muscle (Homo sapiens) (UniProt Q15746). Description: Inhibition of recombinant human N-terminal GST-tagged SmMLCK (475 to 838 residues) expressed in Escherichia coli assessed as remaining activity at 1 uM using KKRPQRATSNVFA as substrate incubated for 30 mins in presence of [gamma-33P]ATP by filter binding method relative to control.

The target of experiment [10] is Serine/threonine-protein kinase SIK3 (Homo sapiens) (UniProt Q9Y2K2). Put plainly: Inhibition of recombinant human N-terminal GST and HA-tagged SIK3 (2 to 1369 residues) expressed in baculovirus infected Sf21 cells assessed as remaining activity at 1 uM using ALNRTSSDSALHRRR as substrate incubated for 30 mins in presence of [gamma-33P]ATP by filter binding method relative to control.

Experiment [11] concerns the target Phosphatidylinositol 4-kinase beta (Homo sapiens, UniProt Q9UBF8). Put plainly: Inhibition of recombinant human N-terminal His6-tagged PIK4Cbeta (1 to 801 residues) expressed in baculovirus expression system at 1 uM using […] as substrate incubated for 45 mins by ADP-Glo assay.
In experiment [12] the target is Serine/threonine-protein kinase D3 (Homo sapiens) (UniProt O94806). Description: Inhibition of human PKCnu at 1 uM using bio-4xCHKT as substrate in presence of 33P-ATP by ProQinase assay.
Chain of Serine/threonine-protein kinase D3 (Homo sapiens) (O94806 whole entry): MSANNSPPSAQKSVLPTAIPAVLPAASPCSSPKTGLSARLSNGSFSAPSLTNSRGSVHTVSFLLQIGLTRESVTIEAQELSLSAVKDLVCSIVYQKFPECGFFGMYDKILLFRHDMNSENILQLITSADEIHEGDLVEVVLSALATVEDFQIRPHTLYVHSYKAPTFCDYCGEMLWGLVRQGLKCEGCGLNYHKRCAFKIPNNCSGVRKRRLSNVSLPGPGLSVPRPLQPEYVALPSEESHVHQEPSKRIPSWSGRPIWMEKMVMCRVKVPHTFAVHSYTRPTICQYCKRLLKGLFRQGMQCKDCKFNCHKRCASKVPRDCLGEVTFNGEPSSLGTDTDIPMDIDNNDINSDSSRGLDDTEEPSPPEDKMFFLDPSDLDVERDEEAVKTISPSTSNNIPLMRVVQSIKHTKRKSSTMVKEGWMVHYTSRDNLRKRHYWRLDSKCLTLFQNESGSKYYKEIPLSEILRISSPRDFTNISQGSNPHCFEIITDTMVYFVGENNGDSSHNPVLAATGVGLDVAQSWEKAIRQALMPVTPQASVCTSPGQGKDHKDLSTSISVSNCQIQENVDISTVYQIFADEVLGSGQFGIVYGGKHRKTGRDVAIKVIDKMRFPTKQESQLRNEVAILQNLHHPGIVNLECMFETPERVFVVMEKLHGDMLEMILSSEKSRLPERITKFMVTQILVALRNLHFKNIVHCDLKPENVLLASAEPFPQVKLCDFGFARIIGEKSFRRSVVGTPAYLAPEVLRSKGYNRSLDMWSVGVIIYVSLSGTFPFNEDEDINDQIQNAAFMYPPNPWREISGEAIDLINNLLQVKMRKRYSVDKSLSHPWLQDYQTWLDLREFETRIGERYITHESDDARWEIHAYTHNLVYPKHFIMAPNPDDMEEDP
The target in experiment [13] is Mitogen-activated protein kinase kinase kinase 11 (Homo sapiens) (UniProt Q16584). Put plainly: Inhibition of human MAP3K11 at 1 uM using MBP as substrate in presence of 33P-ATP by ProQinase assay.
Chain of Mitogen-activated protein kinase kinase kinase 11 (Homo sapiens) (Q16584 whole entry, looked up, the tested form may be a part): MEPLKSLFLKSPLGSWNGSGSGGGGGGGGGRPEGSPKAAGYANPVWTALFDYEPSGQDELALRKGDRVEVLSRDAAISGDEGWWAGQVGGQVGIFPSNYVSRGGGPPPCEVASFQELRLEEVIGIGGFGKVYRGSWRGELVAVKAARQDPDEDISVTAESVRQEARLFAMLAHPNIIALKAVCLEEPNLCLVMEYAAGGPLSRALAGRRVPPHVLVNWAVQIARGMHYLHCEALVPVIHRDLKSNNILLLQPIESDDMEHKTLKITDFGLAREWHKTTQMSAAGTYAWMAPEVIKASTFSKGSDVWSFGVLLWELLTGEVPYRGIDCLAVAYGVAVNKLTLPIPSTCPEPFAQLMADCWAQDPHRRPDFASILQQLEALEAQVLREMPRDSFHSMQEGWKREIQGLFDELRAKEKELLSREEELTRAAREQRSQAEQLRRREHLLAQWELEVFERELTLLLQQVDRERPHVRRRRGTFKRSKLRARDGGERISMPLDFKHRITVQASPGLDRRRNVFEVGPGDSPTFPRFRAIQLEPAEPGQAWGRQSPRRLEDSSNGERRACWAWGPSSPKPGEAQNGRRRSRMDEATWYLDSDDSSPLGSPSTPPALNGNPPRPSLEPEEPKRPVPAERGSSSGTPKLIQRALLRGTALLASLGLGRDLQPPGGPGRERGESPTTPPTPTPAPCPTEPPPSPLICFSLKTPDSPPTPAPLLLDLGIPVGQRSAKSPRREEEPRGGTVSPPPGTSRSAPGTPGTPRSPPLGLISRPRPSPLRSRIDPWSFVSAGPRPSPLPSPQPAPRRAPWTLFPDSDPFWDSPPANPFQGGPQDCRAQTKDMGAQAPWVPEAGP
Experiment [14] has as its target Dual specificity mitogen-activated protein kinase kinase 2 (Homo sapiens) (UniProt P36507). Put plainly: Inhibition of recombinant human N-terminal GST/C-terminal His6-tagged MKK2 (2 to 400 residues) expressed in Escherichia coli assessed as remaining activity at 1 uM using MBP as substrate incubated for 30 mins in presence of [gamma-33P]ATP by filter binding method relative to control.

For experiment [15], the target named is Phosphatidylinositol 4-kinase type 2-alpha (Homo sapiens, UniProt Q9BTU6). Put plainly: Inhibition of PI4K2alpha (unknown origin) at 1 uM.
Chain of Phosphatidylinositol 4-kinase type 2-alpha (Q9BTU6 whole entry): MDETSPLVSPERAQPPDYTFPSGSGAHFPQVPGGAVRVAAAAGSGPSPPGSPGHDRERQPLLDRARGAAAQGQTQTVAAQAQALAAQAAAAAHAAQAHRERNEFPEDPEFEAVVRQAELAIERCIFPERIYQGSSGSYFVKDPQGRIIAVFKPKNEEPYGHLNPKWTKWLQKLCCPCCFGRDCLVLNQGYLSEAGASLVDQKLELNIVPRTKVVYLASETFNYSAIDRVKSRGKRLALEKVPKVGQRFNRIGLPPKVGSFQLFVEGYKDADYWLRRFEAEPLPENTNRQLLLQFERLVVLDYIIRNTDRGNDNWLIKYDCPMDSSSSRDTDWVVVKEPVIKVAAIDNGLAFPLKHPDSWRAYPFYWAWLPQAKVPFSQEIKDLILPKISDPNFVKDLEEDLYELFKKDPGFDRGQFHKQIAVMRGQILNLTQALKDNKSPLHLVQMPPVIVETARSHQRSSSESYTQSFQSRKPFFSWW
For experiment [16], the target named is Fibroblast growth factor receptor 4 (Homo sapiens) (UniProt P22455). Description: Inhibition of human FGFR4 at 1 uM using polyEy as substrate in presence of 33P-ATP by ProQinase assay.
For experiment [17], the target named is Phosphatidylinositol 4-phosphate 5-kinase type-1 alpha (Homo sapiens, UniProt Q99755). Put plainly: Inhibition of human PIP5K1A using PI/PS as substrate by ADP-Glo assay. (In ADP-Glo the light output rises with the ADP produced.)
Chain of Phosphatidylinositol 4-phosphate 5-kinase type-1 alpha (Q99755 whole entry, the tested form may be a part): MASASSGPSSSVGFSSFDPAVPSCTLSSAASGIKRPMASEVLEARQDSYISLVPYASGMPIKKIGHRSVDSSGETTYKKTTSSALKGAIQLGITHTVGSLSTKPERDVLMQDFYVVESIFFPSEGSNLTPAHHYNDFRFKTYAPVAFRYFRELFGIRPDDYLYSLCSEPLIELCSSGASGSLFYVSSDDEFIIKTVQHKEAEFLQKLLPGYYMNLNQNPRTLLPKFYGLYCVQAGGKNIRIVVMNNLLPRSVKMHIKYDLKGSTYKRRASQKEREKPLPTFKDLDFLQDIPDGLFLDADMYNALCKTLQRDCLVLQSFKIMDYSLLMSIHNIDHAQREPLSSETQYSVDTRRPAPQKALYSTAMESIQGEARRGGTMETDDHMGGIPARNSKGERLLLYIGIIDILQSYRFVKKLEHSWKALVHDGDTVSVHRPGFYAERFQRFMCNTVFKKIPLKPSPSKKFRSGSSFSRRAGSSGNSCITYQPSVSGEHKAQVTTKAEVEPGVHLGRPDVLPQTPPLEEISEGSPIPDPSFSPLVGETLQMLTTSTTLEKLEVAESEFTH
For experiment [18], the target named is Protein kinase C gamma type (Homo sapiens) (UniProt P05129). Description: Inhibition of recombinant human N-terminal GST-tagged PKCgamma (1 to 697 residues) expressed in baculovirus infected Sf21 cells assessed as remaining activity at 1 uM using Histone H1 as substrate incubated for 30 mins in presence of [gamma-33P]ATP by filter binding method relative to control.

Experiment [19] concerns the target Cyclin-dependent kinase 1/cyclin B1 (Homo sapiens) (UniProt P06493+P14635). Description: Inhibition of human CDK1/CycB1 at 1 uM using RBER-CHKtide as substrate in presence of 33P-ATP by ProQinase assay. In kind it is protein-complex assay.
Experiment [20] deals with T1, 3-phosphoinositide-dependent protein kinase 1 (Homo sapiens) (UniProt O15530).
T1 sequence (whole entry): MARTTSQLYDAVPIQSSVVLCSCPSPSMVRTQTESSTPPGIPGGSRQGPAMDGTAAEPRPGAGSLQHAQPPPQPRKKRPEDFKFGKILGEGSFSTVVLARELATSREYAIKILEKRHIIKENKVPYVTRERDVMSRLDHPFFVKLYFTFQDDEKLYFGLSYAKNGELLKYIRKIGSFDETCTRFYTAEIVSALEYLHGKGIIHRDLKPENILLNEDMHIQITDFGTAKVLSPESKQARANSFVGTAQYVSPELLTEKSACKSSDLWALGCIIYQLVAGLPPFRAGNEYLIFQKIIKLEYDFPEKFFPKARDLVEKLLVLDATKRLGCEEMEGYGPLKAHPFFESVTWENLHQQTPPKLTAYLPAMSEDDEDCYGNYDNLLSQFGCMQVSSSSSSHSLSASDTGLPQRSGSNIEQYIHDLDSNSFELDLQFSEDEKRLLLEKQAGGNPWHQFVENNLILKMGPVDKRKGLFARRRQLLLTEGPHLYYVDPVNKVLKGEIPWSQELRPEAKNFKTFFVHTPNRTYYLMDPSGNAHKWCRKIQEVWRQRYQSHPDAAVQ
Put plainly: Inhibition of human PDK1 at 1 uM using bio-4xCHKT as substrate in presence of 33P-ATP by ProQinase assay.

Chain of Phosphatidylinositol 4-kinase beta (Q9UBF8 2-816 limits assumed): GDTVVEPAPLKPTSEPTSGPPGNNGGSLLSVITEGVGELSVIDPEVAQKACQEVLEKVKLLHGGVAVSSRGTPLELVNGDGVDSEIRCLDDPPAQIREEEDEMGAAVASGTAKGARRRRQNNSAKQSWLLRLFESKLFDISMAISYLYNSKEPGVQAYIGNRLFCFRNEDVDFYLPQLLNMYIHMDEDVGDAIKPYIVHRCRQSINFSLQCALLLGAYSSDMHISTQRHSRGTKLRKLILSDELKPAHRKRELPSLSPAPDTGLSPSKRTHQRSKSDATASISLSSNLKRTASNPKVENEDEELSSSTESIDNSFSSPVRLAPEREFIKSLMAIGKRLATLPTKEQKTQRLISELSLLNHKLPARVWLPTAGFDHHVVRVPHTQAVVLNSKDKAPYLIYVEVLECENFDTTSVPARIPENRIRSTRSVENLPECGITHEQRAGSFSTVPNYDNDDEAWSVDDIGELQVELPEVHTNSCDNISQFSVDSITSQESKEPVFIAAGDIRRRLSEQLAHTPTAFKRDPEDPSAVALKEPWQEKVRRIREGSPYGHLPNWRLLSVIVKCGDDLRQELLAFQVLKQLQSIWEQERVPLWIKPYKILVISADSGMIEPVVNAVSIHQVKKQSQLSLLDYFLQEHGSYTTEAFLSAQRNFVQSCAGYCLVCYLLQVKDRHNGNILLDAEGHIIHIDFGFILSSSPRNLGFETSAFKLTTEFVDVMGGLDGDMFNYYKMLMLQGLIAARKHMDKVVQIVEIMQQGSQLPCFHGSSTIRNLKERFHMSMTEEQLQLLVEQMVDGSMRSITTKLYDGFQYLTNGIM

Take `CC(C)(O)CNc1ncc(-c2ccnc(Nc3ccnc(Cl)c3)n2)c(CC2CC2)n1`: the inhibition entry (in experiment [1]; in the experiment listed under Homo sapiens; in experiment [5]; in experiment [6]; in [7]; in experiment [11]) was “inactive” throughout. For the same compound, the inhibition entry in experiment [12], in experiment [13], in [15], in experiment [16], in experiment [19] and in [20] was “inactive” in each case. Also, the Activity in experiment [2] amounted to 105%; in [3] it was 129%; in experiment [4] it was 108%; in experiment [8], 103%; in [9] it was 97%; in [10], 112%. Moreover, the Activity in experiment [14] and in [18] was 111% throughout. In addition, in [17], the IC50 was 4.93 µM.

By IC50 is commonly meant the concentration that inhibits the measured activity by half. Higher therefore signals weaker potency.

(Values after ChEMBL document CHEMBL5705899 (Biochem J, 2014).)
